Test results published in US20230145213A1, “Pre-conditioned mesenchymal stem cells and preparations and applications thereof” (BUDDHIST TZU CHI MEDICAL FOUNDATION, priority 2021, published 2023).

What was measured:
[1] = system: SH-SY5Y cells; test: Transwell co-culture assay, SH-SY5Y cell viability by MTT; assay type: cell-based
Source text: In this and the following examples, human neuroblastoma cell line SH-SY5Y (a cell model of dopaminergic neurons for Parkinson's disease research) that was damaged by 6-hydroxydopamine (6-OHDA, i.e., 2,4,5-trihydroxyphenethylamine)-induced oxidative stress was used to assess the effects of GA on the homing ability of MSCs and the neuroprotective effects of GA pre-treated MSCs and the exosomes derived therefrom. SH-SY5Y cells were obtained from the American Type Culture Collection (ATCC; Manassas, Va., USA). The SH-SY5Y cells were cultured in a humidified incubator at 37° C. with 5% CO2. DMEM (Life Technologies, USA) supplemented with 10% FBS (Hyclone, Thermo Fisher Scientific, USA) and 1% penicillin-streptomycin (Gibco, Thermo Fisher Scientific, USA) was used for culturing of the SH-SY5Y cells.
To determine whether GA can promote MSCs to rescue nerve cell death, transwell co-culture assay was performed where WJMSCs (2×10^4 cells) pre-treated with 0, 20, 40, or 80 μM GA for 24 hours were placed in the upper chamber of a transwell insert, and SH-SY5Y cells (3×10^4 cells) treated with 100 μM 6-OHDA were seeded in the bottom well of the transwell plate. After co-culture of the cells at 37° C. for 24 hours, the SH-SY5Y cell viability was determined by MTT assay. […]

[2] = system: SH-SY5Y cells; test: Autophagic flux in SH-SY5Y cells by LC3B immunofluorescence and western blotting; assay type: cell-based, human
Experimental: SH-SY5Y cells under 6-OHDA stimulation were treated with exosomes isolated either from GA pre-treated WJMSCs (80 μM GA for 24 hours) or untreated WJMSCs. For immunofluorescence staining, the treated cells were fixed in 4% PFA, incubated with an anti-LC3B primary antibody followed by a fluorophore-conjugated secondary antibody, and stained with 4′,6-diamidino-2-phenylindole (DAPI). The SH-SY5Y cells were then visualized by a fluorescence microscope (Olympus).

[3] = system: SH-SY5Y cells; test: Western blotting of apoptosis-related, anti-apoptotic and OXPHOS proteins in 6-OHDA-stimulated SH-SY5Y cells; assay type: cell-based, human; conditions: FIG. 5C
Experimental: To further investigate the molecular events associated with the anti-apoptotic effects of GA pre-treated MSC-derived exosomes, the expression of apoptosis-related and anti-apoptotic proteins in 6-OHDA-stimulated SH-SY5Y cells was measured using western blotting. The damaged SH-SY5Y cells were treated with exosomes isolated either from GA pre-treated WJMSCs (80 μM GA for 24 hours) or untreated WJMSCs.
Moreover, the expression of mitochondrial proteins involved in oxidative phosphorylation (OXPHOS), including ATP5A, UQCRC2, MTCO1, SDHB, and NDUFB8, was examined by western blotting.

Compound	protective effect of the GA pre-treated WJMSCs on SH-SY5Y viability in the presence of GW4869 ([1]; co-culture assay with exosome generation inhibitor, FIG. 3B)	SH-SY5Y cell viability, effect of 6-OHDA ([1]; 100 μM 6-OHDA, MTT, FIG. 3A)	LC3 puncta (autophagosome formation) in SH-SY5Y cells ([2]; immunofluorescence, anti-LC3B, FIG. 6A)	autophagy-related protein expression (Beclin-1, LC3B, p62) in SH-SY5Y cells ([2]; western blotting, FIG. 6B)	expression of mitochondrial OXPHOS proteins (ATP5A, UQCRC2, MTCO1, SDHB, NDUFB8) [3]
O=C(/C=C/c1ccc(/C=C/C(=O)Nc2ccc(C3=NCCN3)cc2)cc1)Nc1ccc(C2=NCCN2)cc1 [GW4869]	suppressed				
NCCc1cc(O)c(O)cc1O [6-OHDA, 2,4,5-trihydroxyphenethylamine]		decreased SH-SY5Y cell viability	abundant	increased Beclin-1 and LC3B expression but decreased p62 protein expression	downregulated the expression of the OXPHOS proteins
